Measured values from US8273769B2, “Phenoxy acetic acid derivatives” (Merck Serono SA, priority 2009, dated 2012).

Target: T1, CRTH2 (Homo sapiens, UniProt Q9Y5Y4)
T1 sequence (Q9Y5Y4 1-395): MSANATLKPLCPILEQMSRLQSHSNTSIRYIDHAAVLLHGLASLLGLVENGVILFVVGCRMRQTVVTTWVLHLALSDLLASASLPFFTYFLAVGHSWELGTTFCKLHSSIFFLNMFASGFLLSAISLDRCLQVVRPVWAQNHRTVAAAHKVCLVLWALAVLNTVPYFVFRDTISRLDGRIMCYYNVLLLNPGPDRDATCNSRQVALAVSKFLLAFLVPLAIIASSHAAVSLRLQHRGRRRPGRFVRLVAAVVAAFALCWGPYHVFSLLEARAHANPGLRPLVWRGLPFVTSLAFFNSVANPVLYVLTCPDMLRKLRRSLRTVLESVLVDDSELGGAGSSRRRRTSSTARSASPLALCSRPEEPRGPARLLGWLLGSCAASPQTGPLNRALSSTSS
Experiment: Radioligand binding Scintillation Proximity Assay ([3H]PGD2, hCRTH2-CHO cell membranes)
Set-up: host or cells: CHO cells
Conditions: 1.5 nM [3H]PGD2, hCRTH2-CHO cell membranes, SPA
Method: Adherent CHO cells expressing hCRTH2 (Euroscreen, Belgium) were cultured in 225 cm^2 cell culture flasks (Corning, USA) in 30 ml of medium. After two rinses of phosphate buffered saline (PBS), cells were harvested in 10 ml of PBS containing 1 mM EDTA, centrifuged at 500×g for 5 min at 4° C. and frozen at −80° C. The pellet was re-suspended in 50 mM Tris-HCl, pH 7.4, 2 mM EDTA, 250 mM Sucrose, containing protease inhibitor cocktail tablets, (Complete EDTA-free, Roche, Germany) and incubated 30 min at 4° C. Cells were disrupted by nitrogen cavitation (Parr Instruments, USA) at 4° C. (800 p.s.i. for 30 min), and centrifuged at 500×g for 10 min at 4° C. Pellet containing nuclei and cellular debris was discarded and supernatant was centrifuged 60 min at 4° C. at 45000×g. Membrane pellet was re-suspended in storage buffer (10 mM HEPES/KOH pH 7.4, 1 mM EDTA, 250 mM sucrose, protease inhibitor cocktail tablets) using Dounce homogenization and frozen in liquid nitrogen, and stored at −80° C.
The inhibitory activity can be investigated by a radioligand binding Scintillation Proximity Assay (SPA) (Sawyer et al., Br. J. Pharmocol 2002, 137, 1163-72). The SPA radioligand binding assay was performed at room temperature in binding buffer (10 mM HEPES/KOH pH 7.4, 10 mM MnCl2, with protease inhibitor cocktail tablets), containing 1.5 nM [^3H]PGD2 (Perkin Elmer), 10-50 μg/ml of hCRTH2-CHO cell membrane protein and 2 mg/ml of Wheat-germ agglutinin Sintillation Proximity Assay beads (RPNQ0001, GE-Healthcare) in a final volume of 100 μl in 96 well plates (Corning, USA). Non-specific binding was determined in the presence of 10 μM PGD2 (Cayman, USA). Competing Compounds of Formula (I) were diluted in dimethylsulphoxide so that the total volume of dimethylsulfoxide was kept constant at 1% dimethylsulphoxide (Me2SO). Serial dilutions of 100 μM to 100 pM were prepared and 10 μl each of the compounds of Formula (I) stock solutions were added to the binding assay reagents and incubated for 90 min with agitation at room temperature. Binding activity was determined by using a 1450 Micro-beta scintillation counter (Wallac, UK).

IC50	SMILES
0.06 µM	O=C(O)COc1ccc(Cl)cc1C#Cc1cccc(C(=O)N2CCOCC2)c1 [Example 126, (4-chloro-2-{[3-(morpholin-4-ylcarbonyl)phenyl]ethynyl}phenoxy)acetic acid]
0.068 µM	CN(C)C(=O)c1cccc(C#Cc2cc(Cl)ccc2OCC(=O)O)c1 [Example 127, [4-chloro-2-({3-[(dimethylamino)carbonyl]phenyl}ethynyl)phenoxy]acetic acid]
0.089 µM	O=C(O)COc1ccc(Cl)cc1C#Cc1cc(CO)ccc1F [Example 25, (4-chloro-2-{[2-fluoro-5-(hydroxymethyl)phenyl]ethynyl}phenoxy)acetic acid]
0.066 µM	CCCC(Oc1ccc(Cl)cc1C#Cc1cc(S(=O)(=O)CCC)ccc1C)C(=O)O (centres unmarked) [Example 171, 2-(4-chloro-2-{[2-methyl-5-(propylsulfonyl)phenyl]ethynyl}phenoxy)pentanoic acid]
0.323 µM	O=C(O)COc1ccc(Cl)cc1C#Cc1cncc(S(=O)(=O)NCCO)c1 [Example 46, {4-chloro-2-[(5-{[(2-hydroxyethyl)amino]sulfonyl}pyridin-3-yl)ethynyl]phenoxy}acetic acid]
0.075 µM	CS(=O)(=O)c1cncc(C#Cc2cc(Cl)ccc2OCC(=O)O)c1 [Example 36, (4-chloro-2-{[5-(methylsulfonyl)pyridin-3-yl]ethynyl}phenoxy)acetic acid]
0.267 µM	O=C(O)COc1ccc(Cl)cc1C#Cc1ccc(Cl)s1 [Example 10, {4-chloro-2-[(5-chloro-2-thienyl)ethynyl]phenoxy}acetic acid]
0.017 µM	CC(C)(C)N1C(=O)c2ccc(C#Cc3cc(Cl)ccc3OCC(=O)O)cc2S1(=O)=O [Example 157, {2-[(2-tert-butyl-1,1-dioxido-3-oxo-2,3-dihydro-1,2-benzisothiazol-6-yl)ethynyl]-4-chlorophenoxy}acetic acid]
0.029 µM	O=C(O)COc1ccc(Cl)cc1C#Cc1ccc2c(c1)S(=O)(=O)CC2 [Example 155, {4-chloro-2-[(1,1-dioxido-2,3-dihydro-1-benzothien-6-yl)ethynyl]phenoxy}acetic acid]
0.07 µM	CCCS(=O)(=O)c1cccc(C#Cc2c(Cl)cccc2OCC(=O)O)c1 [Example 74, (3-chloro-2-{[3-(propylsulfonyl)phenyl]ethynyl}phenoxy)acetic acid]
0.008 µM	COc1ccc(-c2ccc(C#Cc3cc(Cl)ccc3OCC(=O)O)cc2S(C)(=O)=O)cc1 [Example 141, (4-chloro-2-{[4′-methoxy-2-(methylsulfonyl)biphenyl-4-yl]ethynyl}phenoxy)acetic acid]
0.019 µM	CS(=O)(=O)c1cc(C#Cc2cc(Cl)ccc2OCC(=O)O)ccc1-c1cccc(Cl)c1 [Example 145, (4-chloro-2-{[3′-chloro-2-(methylsulfonyl)biphenyl-4-yl]ethynyl}phenoxy)acetic acid]
0.006 µM	CCCCN(C)S(=O)(=O)c1ccc(C)c(C#Cc2cc(Cl)ccc2OCC(=O)O)c1 [Example 111, {2-[(5-{[butyl(methyl)amino]sulfonyl}-2-methylphenyl)ethynyl]-4-chlorophenoxy}acetic acid]
0.075 µM	CC(C)S(=O)(=O)c1cc(C#Cc2cc(Cl)ccc2OCC(=O)O)ccc1C(=O)N(C)C [Example 164, (4-chloro-2-{[4-[(dimethylamino)carbonyl]-3-(isopropylsulfonyl)phenyl]ethynyl}phenoxy)acetic acid]
0.06 µM	CS(=O)(=O)Cc1cccc(C#Cc2cc(Cl)ccc2OCC(=O)O)c1 [Example 98, [4-chloro-2-({3-[(methylsulfonyl)methyl]phenyl}ethynyl)phenoxy]acetic acid]
0.002 µM	Cc1ccc(S(=O)(=O)NCC(C)(C)C)cc1C#Cc1cc(Cl)ccc1OCC(=O)O [Example 113, {4-chloro-2-[(5-{[(2,2-dimethylpropyl)amino]sulfonyl}-2-methylphenyl)ethynyl]phenoxy}acetic acid]

IC50	SMILES
0.036 µM	O=C(O)COc1ccc(Cl)cc1C#Cc1cccc(S(=O)(=O)CCCO)c1 [Example 19, [4-chloro-2-({3-[(3-hydroxypropyl)sulfonyl]phenyl}ethynyl)phenoxy]acetic acid]
0.007 µM	Cc1ccc(S(=O)(=O)NC(C)(C)C)cc1C#Cc1cc(Cl)ccc1OCC(=O)O [Example 85, [2-({5-[(tert-butylamino)sulfonyl]-2-methylphenyl}ethynyl)-4-chlorophenoxy]acetic acid]
0.369 µM	Cc1ccc(S(=O)(=O)N(C)CCCN(C)C)cc1C#Cc1cc(Cl)ccc1OCC(=O)O [Example 119, {4-chloro-2-[(5-{[[3-(dimethylamino)propyl](methyl)amino]sulfonyl}-2-methylphenyl)ethynyl]phenoxy}acetic acid]
0.026 µM	COCc1ccc(C#Cc2cc(Cl)ccc2OCC(=O)O)c(F)c1 [Example 34, (4-chloro-2-{[2-fluoro-4-(methoxymethyl)phenyl]ethynyl}phenoxy)acetic acid]
0.001 µM	CCCS(=O)(=O)c1cc(C#Cc2cc(Cl)ccc2OCC(=O)O)c(C)cc1NC(C)=O [Example 153, (2-{[4-(acetylamino)-2-methyl-5-(propylsulfonyl)phenyl]ethynyl}-4-chlorophenoxy)acetic acid]
0.136 µM	Cc1ccc(S(=O)(=O)CCO)cc1C#Cc1cc(C#N)ccc1OCC(=O)O [Example 64, [4-cyano-2-({5-[(2-hydroxyethyl)sulfonyl]-2-methylphenyl}ethynyl)phenoxy]acetic acid]
0.193 µM	CCCS(=O)(=O)c1cccc(C#Cc2nc(C)ccc2OCC(=O)O)c1 [Example 66, [(6-methyl-2-{[3-(propylsulfonyl)phenyl]ethynyl}pyridin-3-yl)oxy]acetic acid]
0.037 µM	CC1(C)C(O)c2ccc(C#Cc3cc(Cl)ccc3OCC(=O)O)cc2S1(=O)=O (centres unmarked) [Example 159, {4-chloro-2-[(3-hydroxy-2,2-dimethyl-1,1-dioxido-2,3-dihydro-1-benzothien-6-yl)ethynyl]phenoxy}acetic acid]
0.091 µM	O=C(O)COc1ccc(Cl)cc1C#Cc1ccc(Cl)cc1 [Example 2, {4-chloro-2-[(4-chlorophenyl)ethynyl]phenoxy}acetic acid]
0.186 µM	CS(=O)(=O)c1cncc(C#Cc2cc(C#N)ccc2OCC(=O)O)c1 [Example 69, (4-cyano-2-{[5-(methylsulfonyl)pyridin-3-yl}ethynyl]phenoxy)acetic acid]
0.008 µM	Cc1ccc(S(=O)(=O)C(C)C)cc1C#Cc1cc(Cl)ccc1OCC(=O)O [Example 51, (4-chloro-2-{[5-(isopropylsulfonyl)-2-methylphenyl]ethynyl}phenoxy)acetic acid]
0.15 µM	Cc1ccc(N(C)S(C)(=O)=O)cc1C#Cc1cc(Cl)ccc1OCC(=O)O [Example 138, [4-chloro-2-({2-methyl-5-[methyl(methylsulfonyl)amino]phenyl}ethynyl)phenoxy]acetic acid]
0.051 µM	Cc1ncc(S(=O)(=O)N(C)C)cc1C#Cc1cc(Cl)ccc1OCC(=O)O [Example 139, [4-chloro-2-({5-[(dimethylamino)sulfonyl]-2-methylpyridin-3-yl}ethynyl)phenoxy]acetic acid]
0.053 µM	CCN(CC)C(=O)c1ccc(C#Cc2cc(Cl)ccc2OCC(=O)O)cc1S(=O)(=O)C(C)C [Example 165, (4-chloro-2-{[4-[(diethylamino)carbonyl]-3-(isopropylsulfonyl)phenyl]ethynyl}phenoxy)acetic acid]
0.346 µM	Cc1ccc(OCC(=O)O)c(C#Cc2ccccc2Cl)c1 [Example 27, {2-[(2-chlorophenyl)ethynyl]-4-methylphenoxy}acetic acid]
0.28 µM	CS(=O)(=O)c1ccc(N2CCCCC2)c(C#Cc2cc(Cl)ccc2OCC(=O)O)c1 [Example 57, (4-chloro-2-{[5-(methylsulfonyl)-2-piperidin-1-ylphenyl]ethynyl}phenoxy)acetic acid]
